From US20250188040A1, “PHARMACEUTICAL COMPOSITIONS COMPRISING WRN HELICASE INHIBITORS” (Vividion Therapeutics, Inc., priority 2022, published 2025)
Like-named read-outs stand apart in the source and are kept apart here.

Experiments:
SW480 cells = assay: Cell growth assay (CellTiter-Glo 2.0), SW480 MSS cell line; details: Homo sapiens, SW480, 120 h, read-out: Cell Growth Inhibition GI50 SW480
WRN C727 = target: T1, WRN C727 (Homo sapiens, UniProt Q14191); assay: Target engagement, in vitro (lysate), OCI-AML2; format: binding; details: read-out: OCI-AML2 WRN C727 TE50 in vitro (lysate)
T1 construct: endogenous in cells; host or cells: OCI-AML2
T1 sequence (Q14191 whole entry): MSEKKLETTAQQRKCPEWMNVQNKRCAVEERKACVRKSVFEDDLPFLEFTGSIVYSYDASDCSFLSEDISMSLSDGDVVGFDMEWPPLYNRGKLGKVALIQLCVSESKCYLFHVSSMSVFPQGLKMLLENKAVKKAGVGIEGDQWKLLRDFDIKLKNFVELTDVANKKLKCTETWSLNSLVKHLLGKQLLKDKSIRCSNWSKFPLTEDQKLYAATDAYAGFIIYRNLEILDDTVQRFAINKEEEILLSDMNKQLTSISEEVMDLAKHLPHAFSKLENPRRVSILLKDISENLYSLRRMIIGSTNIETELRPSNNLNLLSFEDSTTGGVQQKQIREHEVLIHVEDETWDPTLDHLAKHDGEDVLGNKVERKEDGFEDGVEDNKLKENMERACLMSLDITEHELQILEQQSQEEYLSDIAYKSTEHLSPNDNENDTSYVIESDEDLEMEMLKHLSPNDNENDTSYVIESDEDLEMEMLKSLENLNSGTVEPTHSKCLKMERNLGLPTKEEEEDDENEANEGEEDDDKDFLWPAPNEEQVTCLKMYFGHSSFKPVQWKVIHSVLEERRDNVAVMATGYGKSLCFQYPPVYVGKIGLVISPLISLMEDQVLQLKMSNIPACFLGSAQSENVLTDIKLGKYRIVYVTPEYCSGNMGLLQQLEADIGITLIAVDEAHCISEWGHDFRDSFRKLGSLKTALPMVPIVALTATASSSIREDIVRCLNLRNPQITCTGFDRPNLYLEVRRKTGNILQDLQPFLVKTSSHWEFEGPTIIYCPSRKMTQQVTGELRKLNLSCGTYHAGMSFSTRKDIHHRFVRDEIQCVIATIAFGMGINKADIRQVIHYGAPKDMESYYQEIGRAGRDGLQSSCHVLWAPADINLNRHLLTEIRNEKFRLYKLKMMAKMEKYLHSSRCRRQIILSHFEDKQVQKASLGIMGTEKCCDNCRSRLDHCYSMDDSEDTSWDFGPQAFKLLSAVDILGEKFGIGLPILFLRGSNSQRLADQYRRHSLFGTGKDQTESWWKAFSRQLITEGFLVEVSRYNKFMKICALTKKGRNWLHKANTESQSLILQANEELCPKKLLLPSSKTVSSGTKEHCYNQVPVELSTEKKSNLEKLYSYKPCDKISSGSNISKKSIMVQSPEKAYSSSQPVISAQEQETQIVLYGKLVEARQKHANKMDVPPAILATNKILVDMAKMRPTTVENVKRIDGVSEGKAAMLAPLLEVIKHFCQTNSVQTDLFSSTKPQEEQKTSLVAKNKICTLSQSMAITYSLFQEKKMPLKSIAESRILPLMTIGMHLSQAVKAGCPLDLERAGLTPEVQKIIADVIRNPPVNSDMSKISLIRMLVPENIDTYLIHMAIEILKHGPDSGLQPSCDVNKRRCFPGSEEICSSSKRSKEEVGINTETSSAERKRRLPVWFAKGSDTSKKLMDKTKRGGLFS
In short: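 OCI-AML2 intact cells or lysates dosed with compound, then a cysteine-reactive probe; after trypsin digestion, probe-labelled peptides were streptavidin-enriched and quantified by nano-LC parallel reaction monitoring MS. Engagement (%) relative to DMSO controls.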

HCT 116 cells = assay: Cell growth assay (CellTiter-Glo 2.0), HCT 116 MSI-H cell line; details: Homo sapiens, HCT-116, 120 h, read-out: Cell Growth Inhibition GI50 HCT-116
[1] = target: hWRN(519-1227)_C-H3CV-GFP-10His (Homo sapiens, UniProt Q14191); assay: Helicase Assay for WRN Inhibition (ATP-dependent, fluorescence based)
Sequence of hWRN(519-1227)_C-H3CV-GFP-10His (Q14191 519-1227): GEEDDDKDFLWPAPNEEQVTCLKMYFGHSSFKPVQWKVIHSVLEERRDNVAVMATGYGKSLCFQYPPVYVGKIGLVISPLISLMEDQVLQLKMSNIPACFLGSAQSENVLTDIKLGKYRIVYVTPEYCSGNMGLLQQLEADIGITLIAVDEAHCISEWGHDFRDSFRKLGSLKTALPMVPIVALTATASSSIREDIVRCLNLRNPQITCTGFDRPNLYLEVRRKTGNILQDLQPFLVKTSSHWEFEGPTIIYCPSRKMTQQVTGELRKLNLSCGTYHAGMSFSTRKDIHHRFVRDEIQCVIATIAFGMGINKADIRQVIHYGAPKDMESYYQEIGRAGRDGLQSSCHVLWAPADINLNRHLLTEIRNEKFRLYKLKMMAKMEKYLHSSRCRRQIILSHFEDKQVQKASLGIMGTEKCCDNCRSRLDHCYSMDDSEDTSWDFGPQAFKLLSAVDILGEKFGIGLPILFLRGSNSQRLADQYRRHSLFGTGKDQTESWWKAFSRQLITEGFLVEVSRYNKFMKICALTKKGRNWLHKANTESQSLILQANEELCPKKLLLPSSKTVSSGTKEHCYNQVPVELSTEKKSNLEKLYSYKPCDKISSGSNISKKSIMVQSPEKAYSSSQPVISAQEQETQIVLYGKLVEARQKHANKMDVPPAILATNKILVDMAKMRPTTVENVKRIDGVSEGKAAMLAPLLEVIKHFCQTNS
Protocol: Effects of compounds on WRN helicase activity were assessed with the Helicase Assay for WRN Inhibition. This is an ATP-dependent (inclusion of ATP is important and is required for this assay) fluorescence based assay using recombinant WRN and a fluorogenic DNA substrate.
WRN activity was normalized to signal from wells without WRN protein (background, 0% activity) and wells with protein treated only with DMSO (positive control, 10000 activity). For each compound the potency of inhibition (IC50) was determiined using Graphpad Prism.

[2] = WRN Helicase IC50, 30 min preincubation with ATP, 30 min reaction

Row | Structure (SMILES) | GI50 (SW480 cells) | IC50 (WRN C727) | GI50 (HCT 116 cells) | IC50 [1, 2] | IC50 [1]
1 | C[C@@H](/C=C/S(C)(=O)=O)NC(=O)c1cnc(C(C)(C)O)nc1Oc1ccccc1 [Example 218, (S,E)-2-(2-hydroxypropan-2-yl)-N-(4-(methylsulfonyl)but-3-en-2-yl)-4-phenoxypyrimidine-5-carboxamide] | > 29.3 µM | 17.1 µM | 1.38 µM | 4.3 µM | –
2 | COC(C)(C)c1ncc(C(=O)N[C@@H](C)/C=C/S(C)(=O)=O)c(Oc2ccccc2)n1 [Example 221, (S,E)-2-(2-methoxypropan-2-yl)-N-(4-(methylsulfonyl)but-3-en-2-yl)-4-phenoxypyrimidine-5-carboxamide] | 52 µM | 20 µM | 2 µM | 8.3 µM | –
3 | C[C@@H](/C=C/S(C)(=O)=O)NC(=O)c1cnc(C23CC(C2)C3)nc1Oc1ccccc1 [Example 222, (S,E)-2-(bicyclo[1.1.1]pentan-1-yl)-N-(4-(methylsulfonyl)but-3-en-2-yl)-4-phenoxypyrimidine-5-carboxamide] | > 15 µM | 1.3 µM | 0.133 µM | 0.444 µM | –
4 | C[C@@H](/C=C/S(C)(=O)=O)NC(=O)c1cnc(C(F)(F)C2CC2)nc1Oc1ccccc1 [Example 223, (S,E)-2-(cyclopropyldifluoromethyl)-N-(4-(methylsulfonyl)but-3-en-2-yl)-4-phenoxypyrimidine-5-carboxamide] | 19 µM | 0.23 µM | 0.0539 µM | 0.18 µM | –
5 | CCC(F)(F)c1ncc(C(=O)N[C@H](/C=C/S(C)(=O)=O)C2CC2)c(Oc2ccccc2)n1 [Example 230, (S,E)-N-(1-cyclopropyl-3-(methylsulfonyl)allyl)-2-(1,1-difluoropropyl)-4-phenoxypyrimidine-5-carboxamide] | 14 µM | 0.81 µM | 0.0166 µM | 0.11 µM | –
6 | CC(F)(F)c1cc(Oc2ccccc2)c(C(=O)N[C@H](/C=C/S(C)(=O)=O)C2CC2)cn1 [Example 231, (S,E)-N-(1-cyclopropyl-3-(methylsulfonyl)allyl)-6-(1,1-difluoroethyl)-4-phenoxynicotinamide] | 61 µM | 0.42 µM | 0.038 µM | 0.21 µM | –
7 | C[C@@H](/C=C/S(C)(=O)=O)NC(=O)c1ccc(C(C)(F)F)nc1Oc1ccccc1 [Example 232, (S,E)-6-(1,1-difluoroethyl)-N-(4-(methylsulfonyl)but-3-en-2-yl)-2-phenoxynicotinamide] | 28.1 µM | 2.36 µM | 0.0699 µM | 0.3 µM | –
8 | CC(F)(F)c1ccc(C(=O)N[C@H](/C=C/S(C)(=O)=O)C2CC2)c(Oc2ccccc2)n1 [Example 233, (S,E)-N-(1-cyclopropyl-3-(methylsulfonyl)allyl)-6-(1,1-difluoroethyl)-2-phenoxynicotinamide] | 17 µM | 0.48 µM | 0.0199 µM | 0.072 µM | –
9 | CC(F)(F)c1nc(Oc2ccccc2)c(C(=O)N[C@H](/C=C/S(C)(=O)=O)C2CC2)cc1F [Example 235, (S,E)-N-(1-cyclopropyl-3-(methylsulfonyl)allyl)-6-(1,1-difluoroethyl)-5-fluoro-2-phenoxynicotinamide] | 8.3 µM | 70 µM | 0.0394 µM | 0.0893 µM | –
10 | C[C@@H](/C=C/S(C)(=O)=O)NC(=O)c1cc2c(cc1Oc1ccccc1)CCC2=O [Example 247, (S,E)-N-(4-(methylsulfonyl)but-3-en-2-yl)-3-oxo-6-phenoxy-2,3-dihydro-1H-indene-5-carboxamide] | > 10 µM | 30 µM | 6.5 µM | – | 8.5 µM
11 | Cn1ccc2cc(C(=O)N[C@H](/C=C/S(C)(=O)=O)C3CC3)c(Oc3ccccc3)nc21 [Example 250, (S,E)-N-(1-cyclopropyl-3-(methylsulfonyl)allyl)-1-methyl-6-phenoxy-1H-pyrrolo[2,3-b]pyridine-5-carboxamide] | 44.9 µM | 0.62 µM | 1.14 µM | 4.5 µM | –
